Earlier results in patent EP3372227A1, “TABLET FORMULATION OF ADEFOVIR DIPIVOXIL” (MH10 Spolka z ograniczona odpowiedzialnoscia, priority 2017, dated 2018).

Conditions: rat, in vivo

In the case of `Nc1ncnc2c1ncn2CCOCP(=O)(O)O` [adefovir], the relative oral bioavailability is given as 7.8.
